Measurements published in patent US12550899B2, “Topramezone derivative and use thereof” (priority 2023, dated 2026).
Entries after “also recorded” stand apart in the source; their conditions may differ.

Legend:
[1] = tested on: Digitaria sanguinalis; test: Laboratory rainfastness test (foliar spray, simulated rainfall); assay type: in vivo; conditions: for Average fresh weight / Control efficacy: 20 days post-application
Method: Refer to the “Pesticides guidelines for laboratory bioactivity tests Part 4: Foliar spray application test for herbicide activity, NY/T 1155.4-2006”.
(§1) The soil used for the test was a mixture of surface 20 cm loam and vermiculite, mixed in a volume ratio of 3:1 to form a culture soil. The test weeds were cultured in a glass greenhouse with a temperature ranging from 25° C. to 35° C. and under natural light.
A measured quantity of Digitaria sanguinalis seeds were sown in plastic pots with a diameter of 9 cm, and covered with 1-2 mm of soil. The ports were then placed in enamel trays filled with water, and watered by bottom irrigation. After the water seeped to the soil surface, the pots were transferred to the glass greenhouse for standby.
(§2) Five dosages were set for Compound I, Compound II and the control herbicide Topramezone, which were 3.75, 7.5, 15, 30 and 60 grams of active ingredient per hectare respectively. In addition, a blank control was also prepared.
(§3) The required amount of the herbicide was accurately measured out and directly added with water, which was diluted to the required dosage by using the serial dilution method for standby.
(§4) The test was conducted on Digitaria sanguinalis at the two-leaf and one-heart stage, with the stems and leaves both sprayed uniformly. The ASS-4 automatic control spraying system with a fan-shaped nozzle was used indoors for herbicide application. Depending on the nozzle pressure and flow rate, 50 mL of herbicide solution was applied to a spraying area of 1.1 m^2 (which was equivalent to the water consumption of 30 L per mu). The system's operating speed was calibrated. The plastic pots to be treated were arranged evenly on the spraying platform to ensure uniform treatment. The spray pressure was set to 0.35 MPa, and the flow rate of the fan-shaped nozzle was set to 800 mL/min. The spraying was carried out in sequence from the low dosage to the high dosage. Each treatment was repeated four times.
The rainfastness test was set as follows: at 0.5 hours, 1.0 hour, 3.0 hours, and 6.0 hours after the application of the herbicide, the weeds that have already been sprayed with the herbicide were subjected to stem and leaf showering with a specific shower equipment simulating rainfall. Weeds that were not subjected to the showering treatment served as the control group.
The damage symptoms of the weeds (such as growth inhibition, chlorosis, malformation, etc.) were carefully recorded at 3, 7, 10, and 20 days after herbicide application. A visual comparison of the herbicide effectiveness was made after simulated rainfall at different time intervals. At 20 days post-application, the fresh weight of the aboveground parts of the weeds from each treatment group was measured, and the fresh weight control efficacy was calculated.
The treatment results were calculated according to the following formula: weed fresh weight control efficacy (%)=(control fresh weight−treatment fresh weight)/control fresh weight×100. A DPS statistical software was used to conduct regression analysis on the logarithmic values of the herbicide dosage and the probit values of the weed fresh weight control efficacy, and the correlation coefficient, GR50, GR90, and the 95% confidence interval were calculated.

[2] = tested on: grassy weeds and broadleaf weeds; test: Laboratory bioactivity efficacy test 2.2, visual observation of weeds; assay type: in vivo
Method: • grassy weeds: Digitaria sanguinalis, Eleusine indica, Echinochloa crusgalli; • Broadleaf weeds: Portulaca oleracea, Abutilon theophrasti medicus. 2.2.2 Test Conditions
as §1
Quantified seeds of Digitaria sanguinalis, Eleusine indica, Echinochloa crusgalli, Portulaca oleracea, and Abutilon theophrasti medicus were sown in plastic pots with a diameter of 9 cm, and covered with 1-2 mm of soil. The ports were then placed in enamel trays filled with water, and watered by bottom irrigation. After the water seeped to the soil surface, the pots were transferred to the glass greenhouse for standby.
as §2, §3
as §4, with “grassy weeds” for “Digitaria sanguinalis”, “one-heart stage, Abutilon theophrasti medicus at the 2-true-leaf stage, and Portulaca oleracea at the 3-5-leaf” for “one-heart”, “repeated two to” for “repeated”
The herbicide was applied once. After spraying, the pots were air-dried for one day and then placed in the glass greenhouse. Regular watering was conducted to maintain moisture.
The damage symptoms of the weeds (such as growth inhibition, chlorosis, malformation, etc.) were carefully recorded at 3, 7, 10, and 20 days after herbicide application. A visual comparison of the herbicide effectiveness was made. At 20 days post-application, the fresh weight of the aboveground parts of the weeds from each treatment group was measured, and the fresh weight control efficacy was calculated.

[3] = No spraying (no simulated rainfall), dosage 3.75 g/hectare
[4] = No spraying (no simulated rainfall), dosage 7.5 g/hectare
[5] = No spraying (no simulated rainfall), dosage 15 g/hectare
[6] = No spraying (no simulated rainfall), dosage 30 g/hectare
[7] = No spraying (no simulated rainfall), dosage 60 g/hectare
[8] = Spraying water 0.5 hour after herbicide application, dosage 3.75 g/hectare
[9] = Spraying water 0.5 hour after herbicide application, dosage 7.5 g/hectare
[10] = Spraying water 0.5 hour after herbicide application, dosage 15 g/hectare
[11] = Spraying water 0.5 hour after herbicide application, dosage 30 g/hectare
[12] = Spraying water 0.5 hour after herbicide application, dosage 60 g/hectare
[13] = Spraying water 1.0 hour after herbicide application, dosage 3.75 g/hectare
[14] = Spraying water 1.0 hour after herbicide application, dosage 7.5 g/hectare
[15] = Spraying water 1.0 hour after herbicide application, dosage 15 g/hectare
[16] = Spraying water 1.0 hour after herbicide application, dosage 30 g/hectare
[17] = Spraying water 1.0 hour after herbicide application, dosage 60 g/hectare
[18] = Spraying water 3.0 hour after herbicide application, dosage 3.75 g/hectare
[19] = Spraying water 3.0 hour after herbicide application, dosage 7.5 g/hectare
[20] = Spraying water 3.0 hour after herbicide application, dosage 15 g/hectare
[21] = Spraying water 3.0 hour after herbicide application, dosage 30 g/hectare
[22] = Spraying water 3.0 hour after herbicide application, dosage 60 g/hectare
[23] = Spraying water 6.0 hour after herbicide application, dosage 3.75 g/hectare
[24] = Spraying water 6.0 hour after herbicide application, dosage 7.5 g/hectare
[25] = Spraying water 6.0 hour after herbicide application, dosage 15 g/hectare
[26] = Spraying water 6.0 hour after herbicide application, dosage 30 g/hectare
[27] = Spraying water 6.0 hour after herbicide application, dosage 60 g/hectare

SMILES: Cc1c(C(=O)c2cnn(C)c2O)ccc(S(C)(=O)=O)c1C1=NOCC1 [Topramezone]
- Average fresh weight [1, 3]: 6.2 g
- Control efficacy [1, 3]: 4.6%
- Average fresh weight [1, 4]: 5.0 g
- Control efficacy [1, 4]: 23.4%
- Average fresh weight [1, 5]: 3.7 g
- Control efficacy [1, 5]: 43.7%
- Average fresh weight [1, 6]: 2.3 g
- Control efficacy [1, 6]: 64.8%
- Average fresh weight [1, 7]: 1.2 g
- Control efficacy [1, 7]: 82.4%
- Average fresh weight [1, 8]: 6.5 g
- Control efficacy [1, 8]: 0.0%
- Average fresh weight [1, 9]: 6.0 g
- Control efficacy [1, 9]: 7.7%
- Average fresh weight [1, 10]: 5.9 g
- Control efficacy [1, 10]: 10.3%
- Average fresh weight [1, 11]: 5.5 g
- Control efficacy [1, 11]: 16.5%
- Average fresh weight [1, 12]: 4.6 g
- Control efficacy [1, 12]: 29.1%
- Average fresh weight [1, 13]: 6.4 g
- Control efficacy [1, 13]: 2.7%
- Average fresh weight [1, 14]: 6.0 g
- Control efficacy [1, 14]: 8.0%
- Average fresh weight [1, 15]: 5.7 g
- Control efficacy [1, 15]: 13.4%
- Average fresh weight [1, 16]: 5.3 g
- Control efficacy [1, 16]: 19.2%
- Average fresh weight [1, 17]: 4.7 g
- Control efficacy [1, 17]: 28.0%
- Average fresh weight [1, 18]: 6.4 g
- Control efficacy [1, 18]: 1.5%
- Average fresh weight [1, 19]: 5.8 g
- Control efficacy [1, 19]: 10.7%
- Average fresh weight [1, 20]: 5.7 g
- Control efficacy [1, 20]: 13.4%
- Average fresh weight [1, 21]: 4.1 g
- Control efficacy [1, 21]: 36.8%
- Average fresh weight [1, 22]: 3.3 g
- Control efficacy [1, 22]: 50.2%
- Average fresh weight [1, 23]: 6.5 g
- Control efficacy [1, 23]: 0.4%
- Average fresh weight [1, 24]: 5.1 g
- Control efficacy [1, 24]: 21.8%
- Average fresh weight [1, 25]: 3.5 g
- Control efficacy [1, 25]: 46.0%
- Average fresh weight [1, 26]: 2.7 g
- Control efficacy [1, 26]: 59.4%
- Average fresh weight [1, 27]: 1.2 g
- Control efficacy [1, 27]: 81.2%
- Effect of rain on control efficacy (in words) ([1]; rain 0.5 h, 1.0 h and 3.0 h after application): obviously affected; also recorded: significantly reduced
- Effect of rain on control efficacy (in words) ([1]; rain 6.0 h after application): relatively small impact; also recorded: almost unaffected
- Visual observation of weeds ([2]; 3 to 7 days after application, grassy weeds and broadleaf weeds like Portulaca oleracea): gradually became whitened and withered
- Visual observation of weeds ([2]; 10 days after application): excellent treatment effects
- Visual observation of weeds ([2]; 20 days after application): dried up and died
